Test results published in patent publication US11246816B2, “Shampoo compositions comprising a chelant” (The Procter & Gamble Company, priority 2016, dated 2022).

Columns and labels:
[1] = Log P, n-octanol/water partition coefficient; type: physicochemical
From the text: The term log P is the n-octanol/water partition coefficients of the material.
The copper to be removed is inside the hair and the chelant needs to penetrate inside hair and form a strong copper-chelant complex. This copper-chelant complex needs to be water soluble and thus easily removed during the rinsing process. […] These are log P, the octanol/water partitioning coefficient, and the molecular weight of the chelant. Both are related to the ability of the chelant to penetrate into hair and also form a water soluble copper-chelant complex

[2] = log of formation constant of complex with copper; cited from earlier work
[3] = Copper content of colored hair switches after repeated shampoo wash cycles (ICP-OES); details: clarifying shampoo containing the chelant, 20 cycles, copper content of hair compared to same treatment with shampoo without chelant
Experimental: The copper removing performance of the shampoo composition is determined by treating hair with clarifying shampoo containing the corresponding chelant for 20 cycles and comparing the copper content of the hair compared to the same treatment using shampoo without the chelant.
All testing are performed on colored hair switches (see Method of Measurement of Copper on Hair below) weighing approximately 4.0 grams and having a length of approximately 6 inches. The hair switches are commercially available from IHIP (International Hair Importers). Three hair switches per shampoo composition are used. An amount of […] of shampoo is spread via a syringe onto separate hair switch. That is, the dosage is 0.10 g of shampoo per g of hair. Each application consists of adding shampoo to the hair, milking for 30 seconds followed by rinsing for 30 seconds. Shampoo is then reapplied (0.1 g/g), milked for 30 seconds and rinsed for 30 seconds. Excess water is squeezed from the hair switches and left to air dry or treated with a rinse-off conditioner and/or a leave-on treatment composition. This protocol is repeated for a number of times/cycles (as indicated in the tables below, which describe the details of hair treatments).
The following test method is used to assess the ability of the compositions and regimens to remove copper from the hair and to inhibit copper deposition onto the hair.
Hair switches are colored once with an oxidative hair colorant. An extra blonde shade is used for the testing. The hair switches are washed for 10 or 20 repeat wash cycles in tap water containing 7 grains per gallon water hardness (Ca/Mg) and 0.06 μg/g copper ions. Each wash cycle consists of two applications of 0.1 g/g a shampoo to the hair switches. Each application consists of adding shampoo to the hair, milking for 30 secs followed by rinsing for 30 secs. Shampoo is then reapplied 0.1 g/g, milked for 30 secs, rinsed for 30 secs and then dried in a heat box (60° C.) until dry.
Samples of 100 mg of hair are digested overnight with 2 ml of high purity concentrated nitric acid. The digestive mixture also contains 150 μL of 100 μg/g Yttrium internal standard (Inorganic Ventures, Christianburg, Va., USA). Following digestion, samples are heated to 70-80° C. for one hour, cooled to room temperature and diluted to 15 mL with deionized water. Copper content of the hair switches is determined by inductively coupled plasma atomic spectroscopy (ICP-OES)). For each leg, 3 different samples are analyzed.
In order to minimize the variability of the resulting copper content on hair that is related to (a) lot-to-lot viariability due to hair switches and (b) day-to-day variability of the water used during shampoo and conditioner treatments, a single lot of hair switches is used for each experimental series and a separate control experiment/treatment is run for each experimental series (see below).

SMILES | logP [1] | Log KML Cu [2] | Copper Removing Performance from Shampoo [3]
CCCCc1ccc(C(=O)O)nc1 [Fusaric Acid, fusaric acid] | 2.6 |  | 
Nc1cc(C(=O)O)nc(C(=O)O)c1 [4-Aminopyridine-2,6-dicarboxylic acid, 4-aminopyridine-2,6-dicarboxylic acid] | 0 | 11.4 | 
O=C(O)c1cc(O)cc(C(=O)O)n1 [Chelidamic Acid, chelidamic acid] | 0.6 | 12.2 | 35%
O=C(O)c1ccc2ccccc2n1 [Quinaldic Acid, quinaldic acid] | 2.1 | 5.9 | 35%
O=C(O)c1cccc(C(=O)O)n1 [Dipicolinic Acid, dipicolinic acid] | 0.8 | 9.1 | 40%
O=C(O)c1cccnc1C(=O)O [Quinolinic Acid, quinolinic acid] | 0.4 |  | 50%
O=C(O)c1ccccn1 [Picolinic Acid, picolinic acid] | 0.7 | 7.9 | 50%
Cc1cccc(C(=O)O)n1 [6-Methyl Picolinic Acid, 6-methylpyridine-2-carboxylic acid] | 1 | 7.1 | 35%
